Laboratory results published in publication PMC10231375, “HDR, the last enzyme in the MEP pathway, differently regulates isoprenoid biosynthesis in two woody plants” (Plant Physiology, 2023).

What was measured:
PaHDR1 = system: T1, PaHDR1; test: LC-MS/MS of DMADP + IDP, initial velocities, Lineweaver-Burk; format: biochemical, Picea abies; conditions: anaerobic; 1 mM methyl viologen, 3 mM sodium dithionite, MgCl2; pH 6.5; 30 °C or 35 °C
T1 construct: gene HDR1; plastid transit peptide removed (borders only in supplemental primers); E. coli BL21-AI; anaerobic glutathione column; [4Fe-4S] enzyme

PaHDR2 = system: T2, PaHDR2; test: as above; format: biochemical, Picea abies; conditions: anaerobic; 1 mM methyl viologen, 3 mM sodium dithionite, MgCl2; pH 6.5; 30 °C or 35 °C; text calls PaHDR1 the lower-affinity enzyme, against the printed order of Km values; Figure 3 legend
T2 construct: gene HDR2; plastid transit peptide removed (borders only in supplemental primers); E. coli BL21-AI; anaerobic glutathione column; [4Fe-4S] enzyme

With `C/C(=C\COP(=O)(O)OP(=O)(O)O)CO` [HMBDP, (E)-4-hydroxy-3-methylbut-2-enyl diphosphate] the Km (PaHDR1) was 15.9 µM and the Km (PaHDR2) was 21.2 µM.
